For one data set, the target named is T1, trypsin (Bos taurus, UniProt P00760).
T1 sequence (P00760 24-246): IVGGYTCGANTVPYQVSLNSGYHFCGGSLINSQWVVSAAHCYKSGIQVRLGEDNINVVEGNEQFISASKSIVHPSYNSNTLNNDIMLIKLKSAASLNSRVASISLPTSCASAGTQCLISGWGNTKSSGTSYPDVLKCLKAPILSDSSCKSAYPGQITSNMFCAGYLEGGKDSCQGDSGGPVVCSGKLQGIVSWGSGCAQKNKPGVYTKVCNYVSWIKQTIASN
Put plainly: Trypsin inhibitory activity. In kind it is biochemical. The conditions noted are these: pH 8.0, 37° C., substrate Boc-Phe-Ser-Arg-MCA; read-out: Concentration for 50% inhibition, trypsin. As for the experimental part:
To 0.1 ml of a dimethylsulfoxide solution of a compound to be tested were added 0.3 ml of a 0.1M trishydrochloric acid buffer solution (pH 8.0) containing 10 mM of calcium chloride and 0.1 ml of a solution of 50 ng/ml of trypsin dissolved in the buffer solution, followed by incubation at 37° C. and 10 minutes. Thereafter, 5 microliters of a dimethylformamide solution of 10 mM Boc-Phe-Ser-Arg-MCA, followed by reaction at 37° C. for 30 minutes and addition of 0.5 ml of a 10% acetic acid solution to stop the reaction. The fluorecence of produced 7-amino-4-methylcumarin was measured by the use of a fluorometer (Fluorometer 650-40, by Hitachi Ltd.) under conditions of an excitation wavelength of 380 nm, a wavelength of the fluorescence of 460 nm and a slit width of 2 mm.
The inhibition rate of the respective compounds to be tested was calculated according to the following equation. [formula] in which T represents a measured value of "test specimen+enzyme+substrate", E represents a measured value of "enzyme+substrate", and S represents a measured value of "substrate".

Another data set addresses thrombin (Homo sapiens, UniProt P00734). Put plainly: Thrombin inhibitory activity. The class given is biochemical. The conditions noted are these: pH 7.4, 37° C., substrate Boc-Val-Pro-Arg-MCA; read-out: Concentration for 50% inhibition, thrombin. As to the method: To 0.1 ml of a dimethylsulfoxide solution of each of compounds to be tested were added 0.3 ml of a 0.1M phosphate buffer solution (pH 7.4) and 0.1 ml of a thrombin solution containing 100 mu/ml of thrombin in the buffer solution, followed by incubation at 37° C. for 10 minutes. To the solution was added […] of dimethylformamide solution of 10 mM Boc-Val-Pro-Arg-MCA for reaction at 37° C. for 30 minutes. Thereafter, the inhibition rate was calculated similar to the case of trypsin.

Data set [1] in a line: Acute toxicity (LD50), intravenous administration to mice. The conditions noted are these: mouse, in vivo.
The nature of the next data set: Solubility. The class given is physicochemical. The conditions noted are these: pH 3.57.
A further data set relates to rat's blood. Briefly: Anticoagulant activity (blood coagulation time by thrombelastograph). The conditions noted are these: compound 1×10^-4 M, thrombelastogram. As to the method: A compound to be tested was dissolved into a physiological saline solution so as to have the final concentration of 1×10^-4 M and then cooled down by ice. A 0.05 ml of the thus prepared solution was added with 0.5 ml of rat's blood, followed by subjecting the obtained solution to a thrombelastograph (manufactured by Hellige Company). The blood coagulation time (r+k value) was determined by the obtained thrombelastogram.

SMILES strings stand for the structures. Structures can show the parent of a compound that is named as a salt.

A word on the LD50: it is the dose expected to kill half of the subjects tested. Higher therefore signals lower toxicity. Usually solubility stands for the dissolved amount per volume that the medium holds. Read a high solubility as much dissolved substance. With `N=C(N)Nc1ccc(C(=O)Oc2ccc(C(=O)N3CCN(CC(N)=O)CC3)cc2)cc1` [Example 2, 4-[4-(carbamoylmethyl)piperazinocarbonyl]phenyl 4-guanidinobenzoate.dihydrochloride], the IC50 at trypsin was determined as 20 nM; at thrombin, 200 nM. In data set [1], this compound displayed an LD50 of 150 to 200 mg/kg. The compound also came in with a solubility in the data set “Solubility” of over 100 mg/mL. Besides, the “Blood coagulation time (r+k value)” value in the data set with rat's blood stood at 26.7 ± 3.3 min.
On to `N=C(N)Nc1ccc(C(=O)Oc2ccc(C(=O)N3CCN(CC(=O)N4CCOCC4)CC3)cc2)cc1` [Example 6, 4-[4-(Morpholynocarbonylmethyl)piperazinocarbonyl]phenyl 4-guanidinobenzoate.dihydrochloride], for which the results for the IC50 at trypsin and on thrombin were 6 nM and 400 nM, respectively. This compound yielded an LD50 in data set [1] of 150 to 200 mg/kg. The “Blood coagulation time (r+k value)” value in the data set on rat's blood was found to be 15.3 ± 3.1 min.
Consider `N=C(N)Nc1ccc(C(=O)Oc2ccc(C(=O)N3CCN(CC(=O)N4CCCC4)CC3)cc2)cc1` [Example 7, 4-[4-(Pyrrolidinocarbonylmethyl)piperazino-carbonyl]phenyl 4-guanidinobenzoate.dihydrochloride], for which the figures for the IC50 at trypsin and on thrombin were 7 nM and 400 nM, respectively. Further, in data set [1], the LD50 lay within 100 to 150 mg/kg. In the data set with rat's blood, the “Blood coagulation time (r+k value)” value worked out at 9.7 ± 0.3 min.
As for `CC(C)NC(=O)CN1CCN(C(=O)c2ccc(OC(=O)c3ccc(NC(=N)N)cc3)cc2)CC1` [Example 9, 4-[4-(Isopropylcarbamoylmethyl)piperazinocarbonyl]phenyl 4-guanidinobenzoate.dihydrochloride], the IC50 was 10 nM on trypsin and 400 nM on thrombin. This compound also displayed a median lethal dose (LD50) in data set [1] of 150 to 200 mg/kg. Moreover, the “Blood coagulation time (r+k value)” value in the data set with rat's blood worked out at 18.5 min.
For `CCOC(=O)CN1CCN(C(=O)c2ccc(OC(=O)c3ccc(NC(=N)N)cc3)cc2)CC1` [Example 10, 4-[4-(Ethoxycarbonylmethyl)piperazinocarbonyl]phenyl 4-guanidinobenzoate.dihydrochloride], the IC50 at trypsin amounted to 20 nM; on thrombin, 400 nM. In data set [1], this compound returned a 50% lethal dose (LD50) of 150 to 200 mg/kg. Besides, in the data set with rat's blood, the “Blood coagulation time (r+k value)” value is 10 min.
For the compound `COc1cc(C(=O)N2CCN(C(C)C)CC2)cc(OC)c1OC(=O)c1ccc(NC(=N)N)cc1` [Example 11, 4-(4-Isopropylpiperazinocarbonyl)-3,5-dimethoxyphenyl 4-gunanidinobenzoate.dihydrochloride], the IC50 at trypsin amounted to 400 nM. Moreover, in data set [1], the median lethal dose (LD50) fell in the range of 50 to 100 mg/kg.
Regarding `N=C(N)Nc1ccc(C(=O)Oc2ccc(C(=O)N3CCN(CC(=O)N4CCCCC4)CC3)cc2)cc1` [Example 12, 4-[4-(Piperidinocarbonylmethyl)piperazinocarbonyl]phenyl 4-guanidinobenzoate.dihydrochloride], the IC50 at trypsin amounted to 10 nM. The compound further had a median lethal dose (LD50) in data set [1] of 100 to 150 mg/kg. In addition, in the data set with rat's blood, the “Blood coagulation time (r+k value)” value came to 14.5 min.
Taken in the same sequence, the figures for `CC(C)N1CCN(C(=O)c2ccc(OC(=O)c3ccc(NC(=N)N)cc3)cc2)CC1` [Example 13, 4-(4-Isopropylpiperazinocarbonyl)phenyl 4-guanidinobenzoate.dihydrochloride] were 20 nM, 50 to 100 mg/kg and 21 ± 3.9 min.
As to `CC(C(=O)NCCN(C)C)N1CCN(C(=O)c2ccc(OC(=O)c3ccc(NC(=N)N)cc3)cc2)CC1` (centres unmarked) [Example 22, 4-[4-[1-(2-Dimethylaminoethylcarbamoyl)ethyl]piperazinocarbonyl]phenyl 4-guanidinobenzoate.trihydrochloride], the IC50 on trypsin was 40 nM. Besides, the “Blood coagulation time (r+k value)” value with rat's blood was 20.5 ± 0.8 min.
Taken in the same sequence, the figures for `N=C(N)Nc1ccc(C(=O)Oc2ccc(C(=O)N3CCN(CCNC(=O)OCc4ccccc4)CC3)cc2)cc1` [Example 25, 4-[4-(2-Benzyloxycarbonylaminoethyl)piperazinocarbonyl]phenyl 4-guanidinobenzoate.dihydrochloride] were 20 nM and 18.8 ± 1.2 min.
Taken in the same sequence, the figures for `N=C(N)Nc1ccc(C(=O)Oc2ccc(C(=O)N3CCN(CC(=O)O)CC3)cc2)cc1` [Example 27, 4-[4-(Guanidinobenzoyloxy)benzoyl]piperazino-acetic acid:dihydrochloride] were 40 nM and 19.2 ± 2.3 min.
The like results for `N=C(N)Nc1ccc(C(=O)Oc2ccc(C(=O)N3CCNCC3)cc2)cc1` [Example 29, 4-Piperazinocarbonylphenyl 4-guanidinobenzoate.dihydrochloride] were, in that order, 30 nM and 34.8 ± 5.5 min.
On to `CN1CCN(C(=O)c2ccc(OC(=O)c3ccc(NC(=N)N)cc3)cc2)CC1` [Example 30, 4-(4-Methylpiperazinocarbonyl)phenyl 4-guanidinobenzoate.dihydrochloride], for which the IC50 at trypsin was 30 nM. In the data set with rat's blood, the “Blood coagulation time (r+k value)” value was 16.5 ± 1.6 min.
In the case of `N=C(N)Nc1ccc(C(=O)Oc2ccc(C(=O)N3CCCN(CC(N)=O)CC3)cc2)cc1` [Example 33, 4-(4-Carbamoylmethylhomopiperazinocarbonyl)phenyl 4-guanidinobenzoate.dihydrochloride], on trypsin, the IC50 amounted to 20 nM. In addition, the “Blood coagulation time (r+k value)” value in the data set with rat's blood was determined as 32 ± 2.5 min.
Take `CN(C)CCNC(=O)c1ccc(OC(=O)c2ccc(NC(=N)N)cc2)cc1` [Example 34, 4-(N,N-Dimethylethylenediaminocarbonyl)phenyl 4-guanidinobenzoate.dihydrochloride]: the IC50 on trypsin is 10 nM. In the data set with rat's blood, the “Blood coagulation time (r+k value)” value was determined as 41.3 ± 3.9 min.
As for `CN(C)CCN(C)C(=O)c1ccc(OC(=O)c2ccc(NC(=N)N)cc2)cc1` [Example 37, 4-(N,N,N'-Trimethylethylenediaminocarbonyl)phenyl 4-guanidinobenzoate.dihydrochloride], the IC50 on trypsin came out at 40 nM. Moreover, the “Blood coagulation time (r+k value)” value in the data set with rat's blood came out at 46.5 ± 4.5 min.
Consider `CN(CCN(C)C(=O)c1ccc(OC(=O)c2ccc(NC(=N)N)cc2)cc1)CC(N)=O` [Example 38, 4-[(N-Carbamoylmethyl-N,N'-dimethylethylenediamino)carbonyl]phenyl 4-guanidinobenzoate.dihydrochloride], for which, at trypsin, the IC50 was 30 nM. Further, the “Blood coagulation time (r+k value)” value with rat's blood came to 34.2 ± 1.6 min.
As to `CN(C)C(=O)COC(=O)Cc1ccc(OC(=O)c2ccc(NC(=N)N)cc2)cc1` [Reference compound A, reference compound], the IC50 on trypsin stood at 50 nM. The compound further returned an LD50 in data set [1] of 280 mg/kg. For the same compound, the “Blood coagulation time (r+k value)” value in the data set with rat's blood turned out to be 9.8 ± 0.6 min.
Taken in the same sequence, the figures for `CCOC(=O)c1ccc(OC(=O)CCCCCNC(=N)N)cc1` [Reference compound B, reference compound] were 400 nM, 313 mg/kg and 9.8 ± 1.6 min.

The values are drawn from patent publication US4746737A, “Phenyl guanidinobenzoate derivatives which have protease inhibitory activity” (Kowa Co., Ltd., priority 1985, dated 1988).
